In patent US11535615B2, “Heterocyclic compounds as immunomodulators” (Incyte Corporation, priority 2015, dated 2022) one finds IC50 data, which are given here for 21 compounds.

This assay concerns the target PD-1/PD-L1 protein/protein interaction (Homo sapiens (Human), UniProt Q9NZQ7). Put plainly: PD-1/PD-L1 Homogeneous Time-Resolved Fluorescence (HTRF) Binding Assay. The settings on record: recombinant human PD-L1 (19-238) His-tag and human PD-1 (25-167) Fc tag; PBS pH 7.4. The method, then:
Example A. PD-1/PD-L1 Homogeneous Time-Resolved Fluorescence (HTRF) Binding Assay
The assays were conducted in a standard black 384-well polystyrene plate with a final volume of 20 μL. Inhibitors were first serially diluted in DMSO and then added to the plate wells before the addition of other reaction components. The final concentration of DMSO in the assay was 1%. The assays were carried out at […] in the PBS buffer (pH 7.4) with 0.05% Tween-20 and 0.1% BSA. Recombinant human PD-L1 protein (19-238) with a His-tag at the C-terminus was purchased from AcroBiosystems (PD1-H5229). Recombinant human PD-1 protein (25-167) with Fc tag at the C-terminus was also purchased from AcroBiosystems (PD1-H5257). PD-L1 and PD-1 proteins were diluted in the assay buffer and 10 μL was added to the plate well. Plates were centrifuged and proteins were preincubated with inhibitors for 40 minutes. The incubation was followed by the addition of 10 μL of HTRF detection buffer supplemented with Europium cryptate-labeled anti-human IgG (PerkinElmer-AD0212) specific for Fc and anti-His antibody conjugated to SureLight®-Allophycocyanin (APC, PerkinElmer-AD0059H). After centrifugation, the plate was incubated at 25° C. for 60 min. before reading on a PHERAstar FS plate reader (665 nm/620 nm ratio). Final concentrations in the assay were […] PD1, 10 nM PD-L1, 1 nM europium anti-human IgG and 20 nM anti-His-Allophycocyanin. IC50 determination was performed by fitting the curve of percent control activity versus the log of the inhibitor concentration using the GraphPad Prism 5.0 software.

PD-1/PD-L1 protein/protein interaction, sequence (Q9NZQ7 19-238): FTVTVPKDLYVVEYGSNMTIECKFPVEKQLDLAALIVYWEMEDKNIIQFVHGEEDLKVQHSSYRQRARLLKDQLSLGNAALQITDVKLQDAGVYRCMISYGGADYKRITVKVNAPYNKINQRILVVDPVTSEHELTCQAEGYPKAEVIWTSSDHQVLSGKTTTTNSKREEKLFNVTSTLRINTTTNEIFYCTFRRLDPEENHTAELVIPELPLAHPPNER

For orientation: IC50 means the point on the concentration scale where inhibition reaches its midpoint. Take `Cc1c(Nc2cccc3cc(CNCCO)cnc23)cccc1-c1ccccc1` [Example 1, 2-[({8-[(2-methylbiphenyl-3-yl)amino]quinolin-3-yl}methyl)amino]ethanol]: the IC50 lay within 10 to 100 nM.
The result for `Cc1c(Nc2nccc3cc(CNCCO)cnc23)cccc1-c1ccccc1` [Example 2, 2-[({8-[(2-methylbiphenyl-3-yl)amino]-1,7-naphthyridin-3-yl}methyl)amino]ethanol] reads no more than 10 nM; that for `Cc1c(Nc2nccc3cc(CN4CCCCC4C(=O)O)cnc23)cccc1-c1ccccc1` (stereo not drawn) [Example 3, 1-({8-[(2-methylbiphenyl-3-yl)amino]-1,7-naphthyridin-3-yl}methyl)piperidine-2-carboxylic Acid], 10 to 100 nM; that for `Cc1c(Nc2ncnc3cc(CN4CCCCC4C(=O)O)cnc23)cccc1-c1ccccc1` (stereo not drawn) [Example 4, 1-({4-[(2-methylbiphenyl-3-yl)amino]pyrido[3,2-d]pyrimidin-7-yl}methyl)piperidine-2-carboxylic Acid], 10 to 100 nM.
The value for `Cc1c(Nc2nccc3c(CN4CCCCC4C(=O)O)ccnc23)cccc1-c1ccccc1` (stereo not drawn) [Example 5, 1-({8-[(2-methylbiphenyl-3-yl)amino]-1,7-naphthyridin-4-yl}methyl)piperidine-2-carboxylic Acid] was no more than 10 nM; that for `Cc1c(Nc2nccc3c(CNCCO)ccnc23)cccc1-c1ccccc1` [Example 6, 2-[({8-[(2-methylbiphenyl-3-yl)amino]-1,7-naphthyridin-4-yl}methyl)amino]ethanol] was 10 to 100 nM; that for `Cc1c(Nc2cccc3c(CNCCO)ccnc23)cccc1-c1ccccc1` [Example 7, 2-[({8-[(2-methylbiphenyl-3-yl)amino]quinolin-4-yl}methyl)amino]ethanol] was 10 to 100 nM.
The result for `Cc1c(Nc2cccc3c(CN4CCCCC4C(=O)O)ccnc23)cccc1-c1ccccc1` (stereo not drawn) [Example 8, 1-({8-[(2-methylbiphenyl-3-yl)amino]quinolin-4-yl}methyl)piperidine-2-carboxylic Acid] reads 10 to 100 nM; that for `Cc1c(Nc2nccc3c(Cl)c(CNCCO)cnc23)cccc1-c1ccccc1` [Example 9, 2-[({4-chloro-8-[(2-methylbiphenyl-3-yl)amino]-1,7-naphthyridin-3-yl}methyl)amino]ethanol], 10 to 100 nM.
Turning to `COc1c(CNCCO)cnc2c(Nc3cccc(-c4ccccc4)c3C)nccc12` [Example 10, 2-[({4-methoxy-8-[(2-methylbiphenyl-3-yl)amino]-1,7-naphthyridin-3-yl}methyl)amino]ethanol], the IC50 is no more than 10 nM.
The value for `Cc1c(Nc2nccc3c(Cl)c(CN4CCCCC4C(=O)O)cnc23)cccc1-c1ccccc1` (stereo not drawn) [Example 11, 1-({4-chloro-8-[(2-methylbiphenyl-3-yl)amino]-1,7-naphthyridin-3-yl}methyl)piperidine-2-carboxylic Acid] was 10 to 100 nM.
The result for `Cc1c(Nc2nccc3c(CNCCO)ccnc23)cccc1-c1ccc2c(c1)OCCO2` [Example 12, 2-{[(8-{[3-(2,3-dihydro-1,4-benzodioxin-6-yl)-2-methylphenyl]amino}-1,7-naphthyridin-4-yl)methyl]amino}ethanol] reads no more than 10 nM; that for `Cc1c(Nc2nccc3c(CN4CCCCC4C(=O)O)ccnc23)cccc1-c1ccc2c(c1)OCCO2` (stereo not drawn) [Example 13, 1-[(8-{[3-(2,3-dihydro-1,4-benzodioxin-6-yl)-2-methylphenyl]amino}-1,7-naphthyridin-4-yl)methyl]piperidine-2-carboxylic Acid], 10 to 100 nM.
With `Cc1c(Nc2nccc3nc(CNCCO)cnc23)cccc1-c1ccccc1` [Example 14, 2-[({5-[(2-methylbiphenyl-3-yl)amino]pyrido[3,4-b]pyrazin-2-yl}methyl)amino]ethanol], the IC50 was no more than 10 nM.
The result for `Cc1c(Nc2nccc3nc(CN4CCCC[C@H]4C(=O)O)cnc23)cccc1-c1ccccc1` [Example 15, (2S)-1-({5-[(2-methylbiphenyl-3-yl)amino]pyrido[3,4-b]pyrazin-2-yl}methyl)piperidine-2-carboxylic Acid] reads 10 to 100 nM.
Consider `N#Cc1c(Nc2nccc3cc(CNCCO)cnc23)cccc1-c1ccc2c(c1)OCCO2` [Example 16, 2-(2,3-dihydro-1,4-benzodioxin-6-yl)-6-[(3-{[(2-hydroxyethyl)amino]methyl}-1,7-naphthyridin-8-yl)amino]benzonitrile], for which the IC50 was no more than 10 nM.
The result for `Cc1c(Nc2nccc3cc(CNCCO)cnc23)cccc1-c1ccc2c(c1)OCCO2` [Example 17, 2-{[(8-{[3-(2,3-dihydro-1,4-benzodioxin-6-yl)-2-methylphenyl]amino}-1,7-naphthyridin-3-yl)methyl]amino}ethanol] reads no more than 10 nM.
The value for `Cc1c(Nc2nccc3cc(CNCCO)cnc23)cccc1C1=CCCCC1` [Example 18, 2-[({8-[(3-cyclohex-1-en-1-yl-2-methylphenyl)amino]-1,7-naphthyridin-3-yl}methyl)amino]ethanol] was no more than 10 nM; that for `N#Cc1c(Nc2nccc3cc(CNCCO)cnc23)cccc1-c1ccccc1` [Example 19, 3-[(3-{[(2-hydroxyethyl)amino]methyl}-1,7-naphthyridin-8-yl)amino]biphenyl-2-carbonitrile] was no more than 10 nM.
The result for `N#Cc1c(Nc2nccc3cc(CNCCO)cnc23)cccc1C1=CCCCC1` [Example 20, 2-cyclohex-1-en-1-yl-6-[(3-{[(2-hydroxyethyl)amino]methyl}-1,7-naphthyridin-8-yl)amino]benzonitrile] reads no more than 10 nM; that for `N#Cc1c(Nc2nccc3cc(CNCCO)cnc23)cccc1C1CCCCC1` [Example 21, 2-cyclohexyl-6-[(3-{[(2-hydroxyethyl)amino]methyl}-1,7-naphthyridin-8-yl)amino]benzonitrile], 10 to 100 nM.
